Measured values taken from US6685617B1, “Inhibitors of α4β1 mediated cell adhesion” (Pharmacia & Upjohn Company, priority 1998, dated 2004).

Tests used:
[1] = biological target: T1, α4β1 integrin (Jurkat T-cell adhesion to IL-1 stimulated endothelial cell monolayers) (Homo sapiens, UniProt P05556+P13612); test: Jurkat-endothelial cell adhesion assay (Jurkat EC); assay type: cell-based; conditions: Jurkat cells on IL-1 stimulated human umbilical vein endothelial cells; read-out: JK/EC (Jurkat EC Assay IC50 value range)
T1 construct: a T-cell line, Jurkat, known to express the α4β1 integrin; host or cells: Jurkat T-cell line
T1 sequence (P13612 34-1032): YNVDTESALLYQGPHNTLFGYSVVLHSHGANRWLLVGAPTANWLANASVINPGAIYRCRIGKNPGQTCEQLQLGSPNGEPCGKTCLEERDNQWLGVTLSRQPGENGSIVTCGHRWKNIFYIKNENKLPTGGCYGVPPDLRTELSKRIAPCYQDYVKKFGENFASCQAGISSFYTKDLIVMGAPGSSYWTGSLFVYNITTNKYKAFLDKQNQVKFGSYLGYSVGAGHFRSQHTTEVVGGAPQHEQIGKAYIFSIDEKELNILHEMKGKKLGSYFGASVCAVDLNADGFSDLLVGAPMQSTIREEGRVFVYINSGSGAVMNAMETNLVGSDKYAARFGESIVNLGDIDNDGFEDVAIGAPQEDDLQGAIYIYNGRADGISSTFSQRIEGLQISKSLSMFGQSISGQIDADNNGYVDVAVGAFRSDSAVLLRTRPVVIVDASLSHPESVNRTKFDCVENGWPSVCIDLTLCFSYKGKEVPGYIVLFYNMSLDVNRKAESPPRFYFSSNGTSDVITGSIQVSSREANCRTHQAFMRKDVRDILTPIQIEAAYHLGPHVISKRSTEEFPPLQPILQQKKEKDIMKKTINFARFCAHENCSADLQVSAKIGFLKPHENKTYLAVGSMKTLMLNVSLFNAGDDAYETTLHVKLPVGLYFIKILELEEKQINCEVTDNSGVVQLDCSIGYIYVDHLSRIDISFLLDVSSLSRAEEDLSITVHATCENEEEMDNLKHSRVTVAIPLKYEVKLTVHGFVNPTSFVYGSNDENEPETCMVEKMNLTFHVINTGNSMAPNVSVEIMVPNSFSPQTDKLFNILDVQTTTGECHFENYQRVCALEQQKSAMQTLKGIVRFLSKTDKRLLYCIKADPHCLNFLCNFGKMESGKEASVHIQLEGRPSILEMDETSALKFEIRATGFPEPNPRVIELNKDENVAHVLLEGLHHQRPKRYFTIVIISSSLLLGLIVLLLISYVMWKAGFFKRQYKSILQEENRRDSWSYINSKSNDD
T1 sequence (P05556 21-798): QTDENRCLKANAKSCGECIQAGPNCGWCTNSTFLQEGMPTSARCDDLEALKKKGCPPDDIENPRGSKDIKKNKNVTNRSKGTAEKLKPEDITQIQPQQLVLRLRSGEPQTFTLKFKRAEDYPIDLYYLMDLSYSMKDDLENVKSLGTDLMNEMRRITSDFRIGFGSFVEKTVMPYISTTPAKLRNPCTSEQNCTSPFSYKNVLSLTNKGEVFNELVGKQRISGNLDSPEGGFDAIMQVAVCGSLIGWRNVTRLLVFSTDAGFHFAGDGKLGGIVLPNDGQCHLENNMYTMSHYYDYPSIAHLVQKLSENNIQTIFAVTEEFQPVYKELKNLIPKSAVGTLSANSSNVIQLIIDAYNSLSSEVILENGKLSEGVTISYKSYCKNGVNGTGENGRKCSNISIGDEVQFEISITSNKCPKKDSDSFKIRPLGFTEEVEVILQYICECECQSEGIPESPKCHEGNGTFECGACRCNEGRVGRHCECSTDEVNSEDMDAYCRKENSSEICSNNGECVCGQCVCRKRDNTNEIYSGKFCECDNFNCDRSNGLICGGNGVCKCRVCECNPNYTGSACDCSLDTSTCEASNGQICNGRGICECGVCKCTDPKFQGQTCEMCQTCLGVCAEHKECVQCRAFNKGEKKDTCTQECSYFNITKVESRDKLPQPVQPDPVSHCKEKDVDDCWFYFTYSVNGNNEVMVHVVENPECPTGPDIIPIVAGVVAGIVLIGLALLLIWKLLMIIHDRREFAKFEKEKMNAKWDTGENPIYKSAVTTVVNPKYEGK
Procedure, shortened: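 Adhesion was expressed as percent of compound-free fluorescence after 20 min at 37° C (following 5 min settling on ice) of BCECF-loaded Jurkat T cells on washed HUVEC monolayers. The endothelium, passage 6 or lower, had received 0.1 ng/ml recombinant IL-1 for 4 hr at 37° C; compound was premixed with the T cells, typically at 100, 20, 5 and 1.25 μM.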

[2] = biological target: T2, α4β1 integrin (Jurkat cell adhesion to immobilized CS-1 derived peptide CLHPGEILDVPST) (Homo sapiens, UniProt P05556+P13612); test: Jurkat-CS-1 assay; assay type: cell-based; conditions: Jurkat cells on CS-1 peptide coated plates; read-out: JK/CS-1 (Jurkat CS-1 Assay IC50 value range)
T2 construct: 100 μl of Jurkat cells (2.5×10^6 cells/ml) in DMEM plus BSA; host or cells: Jurkat T-cell line
T2 sequence (P13612 34-1032): as the sequence (P13612 34-1032) above
T2 sequence (P05556 21-798): as the sequence (P05556 21-798) above
Procedure, shortened: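 CS-1 peptide was SPDP-crosslinked onto HSA-coated plates and blocked with BSA. Jurkat cells (2.5×10^6 cells/ml) in DMEM/BSA were mixed with compound, generally at 100, 20, 5 and 1.25 μM, and allowed to adhere for 1 hr at 37° C. Bound cells were fixed, stained with toluidine blue and quantified by OD590.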

| Compound | IC50 [1] [nM] | IC50 [2] [nM] |
| --- | --- | --- |
| COC(=O)CCCC(=O)N1CSC[C@@H]1C(=O)N[C@@H](Cc1ccc(NC(=O)c2c(Cl)cccc2Cl)cc1)C(=O)O (relative stereo) [Example 151, [S-(R*,R*)]-4-[[[1-Carboxy-2-[4-[(2,6-dichlorobenzoyl)amino]phenyl]ethyl]amino]carbonyl]-δ-oxo-3-thiazoidinepentanoic Acid Methyl Ester] | ≤ 250 | ≤ 50 |
| O=C(O)[C@H](Cc1ccc(OCc2c(Cl)cccc2Cl)cc1)NC(=O)[C@H]1CSCN1C(=O)OCCN1CCCCC1 (relative stereo) [Example 152, [S-(R*,R*)]-4-[[[1-Carboxy-2-[4-[(2,6-dichlorophenyl)methoxy]phenyl]ethyl]amino]carbonyl]-3-thiazolidinecarboxylic Acid 3-[2-(1-Piperidinyl)ethyl]ester] | ≤ 250 | ≤ 50 |
| CCOC(=O)N1[C@@H](C(=O)N[C@@H](Cc2ccc(OCc3c(Cl)cccc3Cl)cc2)C(=O)O)CSC12CCN(C)CC2 (relative stereo) [Example 155, [S-(R*,R*)]-3-[[[1-Carboxy-2-[4-[(2,6-dichlorophenyl)methoxy]phenyl]ethyl]amino]carbonyl]-8-methyl-1-thia-4,8-diazaspiro[4.5]decane-4-carboxylic Acid 4-Ethyl Ester] | ≥ 1000 | ≥ 750 |
| O=C(O)CCC(=O)N1CCCCC[C@H]1C(=O)N[C@@H](Cc1ccc(NC(=O)c2c(Cl)cccc2Cl)cc1)C(=O)O (relative stereo) [Example 157, [S-(R*,R*)]-2-[[[1-Carboxy-2-[4-[(2,6-dichlorobenzoyl)amino]phenyl]ethyl]amino]carbonyl]-hexahydro-γ-oxo-1H-azepine-1-butanoic Acid] | ≤ 250 | 50 to 750 |
| CCOC(=O)N1[C@@H](C(=O)N[C@@H](Cc2ccc(OCc3c(Cl)cccc3Cl)cc2)C(=O)O)CSC12CCCC2 (relative stereo) [Example 161, [S-(R*,R*)]-3-[[[1Carboxy-2-[4-[(2,6-dichlorophenyl)methoxy]phenylethyl]amino]carbonyl]-1-thia-4-azapiro[4.4]nonane-4-carboxylic Acid 4-Ethyl Ester] | ≥ 1000 | ≥ 750 |
| CC(c1ccccc1)N1C(C(=O)O)CC1C(=O)NC(Cc1ccc(NC(=O)c2c(Cl)cccc2Cl)cc1)C(=O)O (single isomer, unassigned) [Example 133] | ≥ 1000 | ≥ 750 |
| CC(c1ccccc1)N1C(C(=O)O)CC1C(=O)NC(Cc1ccc(NC(=O)c2c(Cl)cccc2Cl)cc1)C(=O)O (single isomer, unassigned) [Example 139] | ≥ 1000 | 50 to 750 |
| COC(=O)[C@H](Cc1ccc(NC(=O)c2c(Cl)cccc2Cl)cc1)NC(=O)[C@@H]1CSCN1C(=O)OC(C)(C)C (stereo in doubt) [Example 13, [R-(R*,S*)]-4-[[[1-[[4-[(2,6-Dichlorobenzoyl)amino]phenyl]methyl]-2-methoxy-2-oxoethyl]amino]carbonyl]-3-thiazolidinecarboxylic Acid 3-(1,1-Dimethylethyl)ester] | ≥ 1000 | ≥ 750 |
| CC(C)(C)OC(=O)N1CSC[C@H]1C(=O)N[C@@H](Cc1ccc(NC(=O)c2c(Cl)cccc2Cl)cc1)C(=O)O (stereo in doubt) [Example 14, [R-(R*,S*)]-4-[[[1-Carboxy-2-[4-[(2,6-dichlorobenzoyl)amino]phenyl]ethyl]amino]carbonyl]-3-thiazolidinecarboxylic Acid 3-(1,1-Dimethylethyl)ester] | 250 to 1000 | 50 to 750 |
| COC(=O)[C@@H](Cc1ccc(NC(=O)c2c(Cl)cccc2Cl)cc1)NC(=O)[C@H]1CSCN1C(=O)OC(C)(C)C (stereo in doubt) [Example 26, [S-(R*,S*)]-4-[[[1-[4-[(2,6-Dichlorobenzoyl)amino]phenyl]methyl]-2-methoxy-2-oxoethyl]amino]carbonyl]-3-thiazolidinecarboxylic Acid 3-1,1-Dimethylethyl)ester] | ≥ 1000 | ≥ 750 |
